Laboratory results reported in US20180252700A1, “SCREENING AGENTS IN DRY EYE DISEASE” (Ora, Inc., priority 2016, published 2018).

Target: T1, TRPM8 (Homo sapiens, UniProt Q7Z2W7)
T1 construct: cold receptors express TRPM8 channels, which are sensitive to innocuous cooling; from tissue; host or cells: eye (corneal cold thermoreceptor nerve endings) of living human subjects
Assay: Menthol vs placebo symptom response on 0-10 Cooling Scale, escalating menthol concentrations (Example 1)
Format: in vivo
Conditions: for Is Menthol symptom response significantly higher than placebo? (TSS): Wilcox signed rank test, 95% confidence; for Duration of symptoms (furthest time point post-dose with symptom score higher than 0), mean: average of all concentrations
Experimental: 6 Healthy and 4 Dry Eye individuals participated in a 2-day internal pilot study. Each participant underwent randomized eye, contralateral, 15 μl pipette-instilled dosing of menthol and placebo (Sterile PBS, pH 7.2), across an escalating range of Menthol concentrations. The following dilutions (USP-grade L-Menthol in Sterile PBS, pH 7.2) were initially tested, in the following order (concentrations are w/v):
Post dose, a 0-10 Cooling Scale questionnaire, where 0 represents “No cooling sensation”, and 10 denotes “Maximum cooling sensation”, was asked at the following time points (OD, OS separate; OD represents your right eye and OS represents your left eye): Upon instillation, 30 seconds, 1 minute, 2 minutes, 3 minutes, and 4 minutes—post dose. At least 45 minutes was allowed between each successive dosing to allow for re-sensitization of TRPM8, as well as to allow any analgesic effects of μ-opioid activity to diminish. At the beginning of Visit 1, symptom questionnaires and Ocular Surface Disease Index (OSDI) were asked. After all concentrations of menthol had been tested, Fluorescein staining and Anesthetized Schirmer's test were performed (1 hour washout). The Schirmer test, first described in 1903 by Schirmer, is still the method most commonly used to evaluate aqueous tear production (Schirmer Graefes Arch Clin Exp Ophthalmol. 1903; 56:197-291,1903).
The primary parameter used was Total Symptom Sum, or TSS (sum of all time points), in active eye vs placebo eye. The secondary parameter used was “Upon instillation” Cooling score. FIG. 1 illustrates a frequency distribution of all symptom scores, based on a histogram of the data. […] As such, nonparametric statistical analysis was used to determine if differences exist between treatments (menthol vs placebo). In the following results, a Wilcox Signed Rank test was employed to test the null hypothesis that Menthol and Placebo elicit statistically similar symptom scores on the Cooling Scale. If TTest Stat<TCritical Value. If so, then the null hypothesis can be rejected with 95% confidence.
All concentrations tested are shown in Table 2, below, along with statistical significance indicated for either group according to a Wilcox Signed Rank Test (Total Symptom Sum, Menthol vs Placebo): […]

[1] = Dry Eye Population, Menthol 0.000050 (w/v)
[2] = Dry Eye Population, Menthol 0.000075 (w/v)
[3] = Dry Eye Population, Menthol 0.0001 (w/v)
[4] = Dry Eye Population, Menthol 0.001 (w/v)
[5] = Healthy Population, Menthol 0.001 (w/v)

T1 sequence (Q7Z2W7 whole entry): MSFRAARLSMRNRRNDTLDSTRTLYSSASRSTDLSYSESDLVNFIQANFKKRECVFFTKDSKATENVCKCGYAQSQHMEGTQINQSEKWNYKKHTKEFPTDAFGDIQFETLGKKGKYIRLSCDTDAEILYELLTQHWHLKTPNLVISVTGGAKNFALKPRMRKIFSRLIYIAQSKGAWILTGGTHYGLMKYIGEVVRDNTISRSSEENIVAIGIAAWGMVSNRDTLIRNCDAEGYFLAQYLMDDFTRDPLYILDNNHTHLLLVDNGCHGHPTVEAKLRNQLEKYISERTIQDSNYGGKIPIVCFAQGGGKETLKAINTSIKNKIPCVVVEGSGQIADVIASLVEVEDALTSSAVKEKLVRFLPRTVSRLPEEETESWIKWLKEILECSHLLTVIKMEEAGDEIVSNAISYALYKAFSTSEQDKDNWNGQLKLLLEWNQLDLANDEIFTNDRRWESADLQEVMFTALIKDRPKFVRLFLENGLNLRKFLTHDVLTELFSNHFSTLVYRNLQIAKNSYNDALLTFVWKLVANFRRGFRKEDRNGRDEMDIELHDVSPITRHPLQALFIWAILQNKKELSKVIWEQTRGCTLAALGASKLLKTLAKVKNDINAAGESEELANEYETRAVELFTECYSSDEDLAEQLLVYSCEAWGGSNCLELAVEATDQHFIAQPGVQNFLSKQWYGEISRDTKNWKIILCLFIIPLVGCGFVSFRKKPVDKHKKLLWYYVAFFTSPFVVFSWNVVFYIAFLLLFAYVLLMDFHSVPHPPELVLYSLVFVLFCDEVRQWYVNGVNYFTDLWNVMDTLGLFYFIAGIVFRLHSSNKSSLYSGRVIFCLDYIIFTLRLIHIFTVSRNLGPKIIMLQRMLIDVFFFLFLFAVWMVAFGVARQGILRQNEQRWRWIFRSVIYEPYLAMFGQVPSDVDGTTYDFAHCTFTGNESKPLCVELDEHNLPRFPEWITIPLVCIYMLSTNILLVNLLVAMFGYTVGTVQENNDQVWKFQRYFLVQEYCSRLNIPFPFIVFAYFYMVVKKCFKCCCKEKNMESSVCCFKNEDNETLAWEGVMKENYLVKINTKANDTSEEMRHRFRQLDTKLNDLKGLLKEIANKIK

CC(C)[C@@H]1CC[C@@H](C)C[C@H]1O [Menthol, L-Menthol]
% of population that had significantly higher menthol TSS than placebo TSS (Dry Eye Population, Menthol 0.000001 (w/v)): 0% | % of population that had significantly higher menthol TSS than placebo TSS (Dry Eye Population, Menthol 0.00001 (w/v)): 0% | % of population that had significantly higher menthol TSS than placebo TSS (Dry Eye Population, Menthol 0.000025 (w/v)): 0% | % of population that had significantly higher menthol TSS than placebo TSS [1]: 75% | Is Menthol symptom response significantly higher than placebo? (TSS) [1]: YES | % of population that had significantly higher menthol TSS than placebo TSS [2]: 25% | Is Menthol symptom response significantly higher than placebo? (TSS) [2]: YES | % of population that had significantly higher menthol TSS than placebo TSS [3]: 25% | Is Menthol symptom response significantly higher than placebo? (TSS) [3]: YES | % of population that had significantly higher menthol TSS than placebo TSS [4]: 75% | Is Menthol symptom response significantly higher than placebo? (TSS) [4]: YES | Duration of symptoms (furthest time point post-dose with symptom score higher than 0), mean (Dry Eye, p=0.004 vs Normal): 2.58 min | % of population that had significantly higher menthol TSS than placebo TSS (Healthy Population, Menthol 0.000001 (w/v)): 0% | % of population that had significantly higher menthol TSS than placebo TSS (Healthy Population, Menthol 0.00001 (w/v)): 0% | % of population that had significantly higher menthol TSS than placebo TSS (Healthy Population, Menthol 0.000025 (w/v)): 0% | % of population that had significantly higher menthol TSS than placebo TSS (Healthy Population, Menthol 0.000050 (w/v)): 16% | % of population that had significantly higher menthol TSS than placebo TSS (Healthy Population, Menthol 0.000075 (w/v)): 16% | % of population that had significantly higher menthol TSS than placebo TSS (Healthy Population, Menthol 0.0001 (w/v)): 0% | % of population that had significantly higher menthol TSS than placebo TSS [5]: 50% | Is Menthol symptom response significantly higher than placebo? (TSS) [5]: YES | Correlation score between Menthol TSS and 4-Symptom Questionnaire (Menthol 0.001%): 0.64 | Correlation score between Menthol TSS and Fluorescein Staining (Corneal) (Menthol 0.001%): 0.50 | Correlation score between Menthol TSS and OSDI (Menthol 0.001%): 0.79 | Menthol TSS, Dry Eye vs Normal (Menthol 0.001%): significantly higher than Normal | Duration of symptoms (furthest time point post-dose with symptom score higher than 0), mean (Normal): 1.57 min | "Upon Instillation" menthol symptom response, Normal vs Dry Eye (any concentrations tested, FIG. 3): No significant differences | Symptom response to menthol (TSS), dry eye subjects vs normal (concentrations of 0.0001% and up, FIG. 2): significantly higher in dry eye subjects | Lower concentration at which Dry Eye population can differentiate Menthol from Placebo compared with Normal (from Table 2): 50 fold
